Patent US20100068197A1, “PHARMACEUTICAL COMPOUNDS AS INHIBITORS OF CELL PROLIFERATION AND THE USE THEREOF” (Myriad Pharmaceuticals, Inc., priority 2008, published 2010)
pIC50: −log10 of the molar value.

How the values were obtained:
[1] = test system: P388/ADR cell lines (overexpress the multidrug resistance pump MDR-1); assay: Multidrug resistant cell assay, cell viability by ATP-lite; format: cell-based, murine
Source text: Cytotoxicity of compounds in multidrug resistant cells can be determined by administering compounds to cell lines that overexpress the multidrug resistance pump MDR-1 and determining the viability of the cell lines. P388/ADR cell lines are known to overexpress the multidrug resistance pump MDR-1 (also known as P-glycoprotein-1; Pgp-1).
P388/ADR cell lines are obtained from American Type Culture Collection (Manassas, Va.) and maintained in RPMI-1640 media supplemented with 10% FCS, 10 units/mL penicillin and streptomycin, 2 mM Glutamax and 1 mM sodium pyruvate (Invitrogen Corporation, Carlsbad, Calif.). For compound testing, cells are plated in 96 well dishes at a concentration of 1.5×10^4 cells/well. Cells are allowed to adhere to the plate overnight and then incubated with compounds at final concentrations ranging from 0.13 nM to 10 μM for 72 hours. Cell viability is then assessed using the ATP-lite reagent (Perkin Elmer, Foster City, Calif.). Plates are read on a Wallac Topcount luminescence reader (Perkin Elmer, Foster City, Calif.) and the results graphed in Prism software (Graphpad Software, Inc., San Diego, Calif.). Non-linear regression with variable slope analysis is performed to obtain IC50 concentration values.

[2] = test system: P388 murine leukemia cell line; assay: P388 cytotoxicity, cellular viability by ATP-Lite; format: cell-based; details: compound concentration required to inhibit growth by 50%, intracellular ATP
Procedure: A P388 murine leukemia cell line was obtained from NCI, Frederick, Md. P388 cells were cultured in RPMI-1640 supplemented with 10% fetal bovine serum, 2 mM Glutamax, 1 mM sodium pyruvate, 0.1 mM non-essential amino acids and 10 mM HEPES. Cells were grown at 37° C. in a humidified 5% CO2 atmosphere. Exponentially growing P388 cells were plated at 5,000 cells/well in a 96-well flat-bottomed microtiter plate (Corning, Costar #3595). […] Cellular viability was determined 72 hours later by measuring intracellular ATP with ATP-Lite assay system. The effect of compounds on cell viability was calculated by comparing the ATP levels of cells exposed to test compound with those of cells exposed to DMSO. A semi-log plot of relative ATP levels versus compound concentration was used to calculate the compound concentration required to inhibit growth by 50% (IC50). Data was analyzed by Prism software (GraphPad; San Diego, Calif.) by fitting it to a sigmoidal dose response curve.

[3] = Mus musculus, 72 h, multidrug resistant cells overexpressing MDR-1
[4] = multidrug resistant cells overexpressing MDR-1, 72 hours

SMILES | pIC50 [1, 3] | pIC50 [1, 4] | pIC50 ([2]; Mus musculus, P388, 72 h) | pIC50 ([2]; 72 hours)
COc1ccc(N(C)c2nc(N[C@@H](C)[C@H](O)c3ccccc3)nc3ccccc23)cc1 [Example 24, (1R,2S)-2-{4-[(4-Methoxy-phenyl)-methyl-amino]-quinazolin-2-ylamino}-1-phenyl-propan-1-ol] | 5.77 | – | 5.80 | –
COc1ccc(N(C)c2nc(NCCOC(=O)[C@H](N)Cc3c[nH]c4ccccc34)nc3ccccc23)cc1 [Example 35, (R)-2-Amino-3-(1H-indol-3-yl)-propionic acid 2-{4-[(4-methoxy-phenyl)-methyl-amino]-quinazolin-2-ylamino}-ethyl ester] | 6.62 | – | 6.66 | –
COc1ccc(N(C)c2nc(NCCOC(=O)[C@H](Cc3c[nH]c4ccccc34)NC(=O)OCc3ccccc3)nc3ccccc23)cc1 [Example 29, (S)-2-Benzyloxycarbonylamino-3-(1H-indol-3-yl)-propionic acid 2-{4-[(4-methoxy-phenyl)-methyl-amino]-quinazolin-2-ylamino}-ethyl ester] | 7.40 | – | 7.49 | –
COc1ccc(N(C)c2nc(CNC(=O)OC(C)OC(=O)C(C)C)nc3ccccc23)cc1 (stereo not shown) [Example 49, Isobutyric acid 1-{4-[(4-methoxy-phenyl)-methyl-amino]-quinazolin-2-ylmethylcarbamoyloxy}-ethyl ester] | 7.89 | – | 8.26 | –
COCCOCCOCCOc1nc(N(C)c2ccc(OC)cc2)c2ccccc2n1 [Example 2, (2-{2-[2-(2-Methoxy-ethoxy)-ethoxy]-ethoxy}-quinazolin-4-yl)-(4-methoxy-phenyl)-methyl-amine] | 7.13 | – | 7.19 | –
CCOC(=O)C1C=CC(C)n2c(=O)n(CCNc3nc(N(C)c4ccc(OC)cc4)c4ccccc4n3)c(=O)n21 (stereo not shown) [Example 6, 2-(2-{4-[(4-Methoxy-phenyl)-methyl-amino]-quinazolin-2-ylamino}-ethyl)-8-methyl-1,3-dioxo-2,3,5,8-tetrahydro-1H-[1,2,4]triazolo[1,2-a]pyridazine-5-carboxylic acid ethyl ester] | 5.46 | – | 5.52 | –
COc1ccc(N(C)c2nc(CN(CCCO)Cc3nc(N(C)c4ccc(OC)cc4)c4ccccc4n3)nc3ccccc23)cc1 [Example 54, 3-(Bis-{4-[(4-methoxy-phenyl)-methyl-amino]-quinazolin-2-ylmethyl}-amino)-propan-1-ol] | 7.12 | – | 7.19 | –
COc1ccc(N(C)c2nc(CNC(=O)[C@H](CC(N)=O)NC(=O)OC(C)(C)C)nc3ccccc23)cc1 [Example 51, [(S)-2-Carbamoyl-1-({4-[(4-methoxy-phenyl)-methyl-amino]-quinazolin-2-ylmethyl}-carbamoyl)-ethyl]-carbamic acid tent-butyl ester] | 6.01 | – | 6.21 | –
COc1ccc(N(C)c2nc(CNC(=O)OC(COC(C)=O)COC(C)=O)nc3ccccc23)cc1 [Example 55, Acetic acid 3-acetoxy-2-{4-[(4-methoxy-phenyl)-methyl-amino]-quinazolin-2-ylmethylcarbamoyloxy}-propyl ester] | 6.35 | – | 6.48 | –

Continued, in another order:

pIC50 [1, 3] | pIC50 [1, 4] | SMILES | pIC50 ([2]; Mus musculus, P388, 72 h) | pIC50 ([2]; 72 hours)
7.74 | – | COc1ccc(N(C)c2nc(NCCOC(=O)CN)nc3ccccc23)cc1 [Example 13, Amino-acetic acid 2-{4-[(4-methoxy-phenyl)-methyl-amino]-quinazolin-2-ylamino}-ethyl ester] | 7.82 | –
5.11 | – | COc1ccc(N(C)c2nc(NCCOP(=O)(O)OC(C)(C)C)nc3ccccc23)cc1 [Example 12, Phosphoric acid tent-butyl ester 2-{4-[(4-methoxy-phenyl)-methyl-amino]-quinazolin-2-ylamino}-ethyl ester] | 5.51 | –
6.22 | – | COc1ccc(N(C)c2nc(NCCNC(N)=O)nc3ccccc23)cc1 [Example 40, (2-{4-[(4-Methoxy-phenyl)-methyl-amino]-quinazolin-2-ylamino}-ethyl)-urea] | 6.30 | –
5.03 | – | COc1ccc(N(C)c2nc(NCCNC(C)=O)nc3ccccc23)cc1OC [Example 20, N-(2-{4-[(3,4-Dimethoxy-phenyl)-methyl-amino]-quinazolin-2-ylamino}-ethyl)-acetamide] | 5.77 | 5.96
6.77 | – | COc1ccc(N(C)c2nc(N[C@@H](C)C(=O)OC(C)(C)C)nc3ccccc23)cc1 [Example 28, (S)-2-{4-[(4-Methoxy-phenyl)-methyl-amino]-quinazolin-2-ylamino}-propionic acid tert-butyl ester] | 6.82 | –
6.66 | – | COc1ccc(N(C)c2nc(NCCOC(=O)[C@@H](N)CCSC)nc3ccccc23)cc1 [Example 27, (S)-2-Amino-4-methylsulfanyl-butyric acid 2-{4-[(4-methoxy-phenyl)-methyl-amino]-quinazolin-2-ylamino}-ethyl ester] | 6.66 | –
5.47 | 5.70 | COc1ccc(N(C)c2nc(NCCNC(=O)OC(C)(C)C)nc3ccc(OC)cc23)cc1 [Example 16, (2-{6-Methoxy-4-[(4-methoxy-phenyl)-methyl-amino]-quinazolin-2-ylamino}-ethyl)-carbamic acid tent-butyl ester] | 5.40 | 5.62
7.37 | – | COC(=O)[C@H](Cc1ccc(O)cc1)Nc1nc(N(C)c2ccc(OC)cc2)c2ccccc2n1 [Example 34, (S)-3-(4-Hydroxy-phenyl)-2-{4-[(4-methoxy-phenyl)-methyl-amino]-quinazolin-2-ylamino}-propionic acid methyl ester] | 7.44 | –
6.47 | 6.46 | COc1ccc(N(C)c2nc(NCCNC(=O)OC(C)(C)C)nc3ccccc23)cc1OC [Example 14, (2-{4-[(3,4-Dimethoxy-phenyl)-methyl-amino]-quinazolin-2-ylamino}-ethyl)-carbamic acid tert-butyl ester] | 6.52 | 6.47
5.70 | – | COc1ccc(N(C)c2nc(NCCOCCOCCN)nc3ccccc23)cc1 [Example 3, N^2-{2-[2-(2-Amino-ethoxy)-ethoxy]-ethyl}-N^4-(4-methoxy-phenyl)-N^4-methyl-quinazoline-2,4-diamine] | 5.85 | –
6.28 | – | COc1ccc(N(C)c2nc(NCCNCCNCCN)nc3ccccc23)cc1 [Example 4, N^2-{2-[2-(2-Amino-ethylamino)-ethylamino]-ethyl}-N^4-(4-methoxy-phenyl)-N^4-methyl-quinazoline-2,4-diamine] | 6.26 | –
6.15 | – | COc1ccc(N(C)c2nc(N[C@@H](C)C(=O)O)nc3ccccc23)cc1 [Example 36, (S)-2-{4-[(4-Methoxy-phenyl)-methyl-amino]-quinazolin-2-ylamino}-propionic acid] | 6.11 | –
5.96 | – | COc1ccc(N(C)c2nc(NCCNC(=O)CNC(=O)OC(C)(C)C)nc3ccccc23)cc1 [Example 31, [(2-{4-[(4-Methoxy-phenyl)-methyl-amino]-quinazolin-2-ylamino}-ethylcarbamoyl)-methyl]-carbamic acid tert-butyl ester] | 5.89 | –
